Assay [1] has as its system Pfeiffer ("Parental") DLBCL cell line. Briefly: cell proliferation, Pfeiffer parental. It is filed as cell-based. The note with it: Homo sapiens. The method, then:
(§1) This activity of ASN002 was assessed using a diffuse large B-cell lymphoma (DLBCL) cell line, Pfeiffer (“Parental”); and an ibrutinib-resistant variant of the same cell line (“Ibrutinib-R”), which was developed by growing the cells in the presence of increasing concentrations of ibrutinib. Pools of ibrutinib-resistant cells were tested in this study. The drug idelalisib (which was approved by the FDA in […] for the treatment of B-cell blood cancers) was used for comparison as a reference compound. The data are set forth in Table A (IC50 is the half maximal inhibitory concentration).

For assay [2], the system named is ibrutinib-resistant variant of Pfeiffer ("Ibrutinib-R"). The assay is described as follows: cell proliferation, ibrutinib-resistant Pfeiffer. Type of assay: cell-based. The note with it: Homo sapiens, pools of resistant cells. On the procedure:
as §1

Experimental findings from US20190070182A1, “USES OF PYRIMIDO-PYRIDAZINONES TO TREAT CANCER” (Asana Biosciences, LLC, priority 2015, published 2019) are described below.

pIC50: −log10 of the molar value.

As to `CC[C@H](Nc1ncnc2[nH]cnc12)c1nc2cccc(F)c2c(=O)n1-c1ccccc1` [Idelalisib, idelalisib], the pIC50 (commonly −log10 of the IC50, conventionally taken in molar units) was 6.89 in assay [1] and under 5.00 in assay [2].
